Test results published in the NIST ThermoML archive (doi:10.1016/j.jct.2007.11.013).

Experiment: xn = mol fraction of the nth substance listed
Details: Liquid, Bellows volumetry

CC(C)C [2-methylpropane] + CCCC
mass density [kg/m3]
Details | 280 K | 320 K | 360 K | 400 K | 440 K
1000 kPa, x2 = 0.2656 | 580.73 | 530.15 | – | – | –
1000 kPa, x2 = 0.4913 | 585.41 | 535.84 | – | – | –
1000 kPa, x2 = 0.7508 | 589.56 | 541.44 | – | – | –
2000 kPa, x2 = 0.2656 | 582.43 | 532.88 | 469.97 | – | –
2000 kPa, x2 = 0.4913 | 586.92 | 538.41 | 478.17 | – | –
2000 kPa, x2 = 0.7508 | 590.9 | 543.79 | – | – | –
3000 kPa, x2 = 0.2656 | 583.92 | 535.39 | 475.52 | – | –
3000 kPa, x2 = 0.4913 | 588.36 | 540.81 | 483.1 | 385.11 | –
3000 kPa, x2 = 0.7508 | 592.32 | 546.12 | 490.53 | 402.2 | –
5000 kPa, x2 = 0.2656 | 587.09 | 540.14 | 484.88 | 406.75 | –
5000 kPa, x2 = 0.4913 | 591.12 | 545.4 | 491.8 | 417.26 | –
5000 kPa, x2 = 0.7508 | 594.99 | 550.35 | 498.56 | 427.6 | –
10000 kPa, x2 = 0.2656 | 593.89 | 550.53 | 502.82 | 446.63 | 376.07
10000 kPa, x2 = 0.4913 | 597.45 | 555.38 | 508.78 | 453.53 | 384.46
10000 kPa, x2 = 0.7508 | 601.36 | 559.85 | 514.37 | 460.33 | 393.12
20000 kPa, x2 = 0.2656 | 605.71 | 567.26 | 527.7 | 485.47 | 441.9
20000 kPa, x2 = 0.4913 | 608.98 | 571.45 | 532.51 | 490.78 | 447.31
20000 kPa, x2 = 0.7508 | 612.32 | 575.19 | 537.18 | 495.66 | 452.37
30000 kPa, x2 = 0.2656 | 615.41 | 580.65 | 545.48 | 509.52 | 474.54
30000 kPa, x2 = 0.4913 | 618.89 | 584.41 | 549.98 | 514.15 | 479.02
30000 kPa, x2 = 0.7508 | 621.81 | 587.77 | 554.09 | 518.42 | 483.18
40000 kPa, x2 = 0.2656 | 624.41 | 591.82 | 559.82 | 527.48 | 497.07
40000 kPa, x2 = 0.4913 | 627.45 | 595.5 | 563.9 | 531.91 | 501.25
40000 kPa, x2 = 0.7508 | 630.16 | 598.52 | 567.64 | 535.63 | 504.89
50000 kPa, x2 = 0.2656 | 632.48 | 601.55 | 571.85 | 542.19 | 514.8
50000 kPa, x2 = 0.4913 | 635.21 | 605.01 | 575.77 | 546.27 | 518.55
50000 kPa, x2 = 0.7508 | 637.79 | 607.82 | 579.14 | 549.67 | 521.88
60000 kPa, x2 = 0.2656 | 639.66 | 610.3 | 582.32 | 554.58 | 529.25
60000 kPa, x2 = 0.4913 | 642.4 | 613.74 | 586.24 | 558.4 | 532.82
60000 kPa, x2 = 0.7508 | 644.7 | 616.38 | 589.35 | 561.67 | 535.99
70000 kPa, x2 = 0.2656 | 646.31 | 618.47 | 591.65 | 565.35 | 541.79
70000 kPa, x2 = 0.4913 | 648.87 | 621.47 | 595.42 | 569.18 | 545.18
70000 kPa, x2 = 0.7508 | 650.96 | 623.97 | 598.27 | 572.18 | 548.23
80000 kPa, x2 = 0.2656 | 652.53 | 625.51 | 599.96 | 575 | 552.55
80000 kPa, x2 = 0.4913 | 654.98 | 628.69 | 603.53 | 578.67 | 556.07
80000 kPa, x2 = 0.7508 | 656.95 | 631.01 | 606.56 | 581.7 | 558.93
90000 kPa, x2 = 0.2656 | 658.15 | 632.18 | 607.66 | 583.7 | 562.49
90000 kPa, x2 = 0.4913 | 660.76 | 635.21 | 611.18 | 587.47 | 565.64
90000 kPa, x2 = 0.7508 | 662.63 | 637.49 | 613.96 | 590.11 | 568.41
100000 kPa, x2 = 0.2656 | 663.68 | 638.57 | 614.79 | 591.48 | 571.02
100000 kPa, x2 = 0.4913 | 666.14 | 641.34 | 618.14 | 595.11 | 574.54
100000 kPa, x2 = 0.7508 | 667.99 | 643.48 | 620.9 | 598.02 | 577.23
120000 kPa, x2 = 0.2656 | 673.84 | 649.73 | 627.56 | 605.85 | 586.73
120000 kPa, x2 = 0.4913 | 675.91 | 652.68 | 630.84 | 609.08 | 590.02
120000 kPa, x2 = 0.7508 | 677.69 | 654.79 | 633.4 | 611.77 | 592.51
140000 kPa, x2 = 0.2656 | 682.73 | 660.13 | 638.86 | 618.11 | 600.22
140000 kPa, x2 = 0.4913 | 685.03 | 662.76 | 642.02 | 621.57 | 603.26
140000 kPa, x2 = 0.7508 | 686.69 | 664.53 | 644.56 | 623.93 | 605.8
160000 kPa, x2 = 0.2656 | 691.28 | 669.26 | 649.01 | 628.97 | 612.2
160000 kPa, x2 = 0.4913 | 693.26 | 672 | 652.16 | 632.55 | 615.27
160000 kPa, x2 = 0.7508 | 694.86 | 673.62 | 654.38 | 634.89 | 617.59
180000 kPa, x2 = 0.2656 | 699.06 | 677.76 | 658.15 | 639.19 | 622.95
180000 kPa, x2 = 0.4913 | 700.72 | 680.38 | 661.25 | 642.45 | 625.93
180000 kPa, x2 = 0.7508 | 702.34 | 681.89 | 663.57 | 644.7 | 628.15
200000 kPa, x2 = 0.2656 | 706.05 | 685.47 | 666.71 | 648.34 | 632.67
200000 kPa, x2 = 0.4913 | 708 | 687.99 | 669.76 | 651.4 | 635.69
200000 kPa, x2 = 0.7508 | 709.43 | 689.51 | 672.02 | 653.9 | 637.8
